According to patent US20240226155A1, “Methods and Products for Reducing HIV Reservoirs” (The Regents of the University of California, priority 2023, published 2024):
Entries after “also recorded” stand apart in the source; their conditions may differ.

Columns and labels:
HIV = settings: cited from earlier work
barcoded HIV NL-HABC = assay: Kick and kill: SUW133 and NK cells in NL-HABC-infected mice on ART, then ART interruption; assay type: in vivo, TKO-BLT mice
Description: To determine whether combining a robust LRA with NK cells would effectively diminish the viral reservoir, as NK cells might eliminate cells induced to express virus due to the LRA activity, the following was performed. BLT mice were infected with NL-HABC, followed by ART to halt productive infection (FIG. 21, FIG. 64). Once mice were suppressed on ART, a subset of mice received a single intraperitoneal injection of 2 μg of SUW133 per mouse to reverse latency, followed by an intravenous injection of 5×10^6 allogeneic human NK cells eight hours later. Reactivation and killing of activated infected cells was allowed to occur while the mice were maintained on ART. ART was then discontinued, and mice were concurrently administered one more intravenous injection of 5×10^6 NK cells. A subset of control mice received SUW133, but no NK cell injections. All remaining control mice received DMSO as a vehicle control instead of SUW133. A subset of the mice receiving DMSO also received NK cell injections. Plasma viral loads were monitored after ART interruption for 12.1 weeks (FIG. 22). In these experiments, TKO-BLT mice, which can be robustly infected with HIV and are less susceptible to GVHD compared to NSG-BLT, were used and allowed monitoring the mice after ART interruption for a longer interval.
RNA was extracted from the barcoded virus supernatant using QIAamp Viral RNA Mini Kit (Qiagen) and from cells using RNeasy MiniKit (Qiagen). cDNA was generated using SuperScript IV First-Strand Synthesis Kit (Invitrogen). The same amount of input RNA that was used for viral load measurement was also used for cDNA synthesis for barcode analysis. The barcode region was amplified by hemi-nested PCR using Phusion High-Fidelity DNA Polymerase (ThermoFisher Scientific). Each RNA molecule was tagged with a Primer ID using methods in the art. Primer ID removal and cDNA purification was performed using an Purelink Quick PCR Purification Kit (Invitrogen) and methods in the art. […] Deep sequencing was performed with Illumina HiSeq3000 PE150. Sequencing depth was 10-fold higher than viral genome copies. Raw sequencing reads were de-multiplexed using the six-nucleotide ID. Sequencing error within the barcode region was corrected by filtering out low quality reads (quality score<30) and un-matched base-pairs between forward and reverse reads. PrimerIDs were used to correct sequencing errors. The frequency of Primer ID reads followed a bi-modal distribution (FIG. 53). The Primer IDs were filtered using the frequency cutoff between the Poisson distribution of errors and normal distribution of real Primer IDs. For each Primer ID, the most frequently observed barcode was called. Similar barcodes were then grouped into clusters. […]

Structure (SMILES): C=C1C[C@H]2C[C@]3(O)O[C@H](C[C@@H](O)CC(=O)O[C@@H](CO)C[C@@H]4C/C(=C\C(=O)OC)[C@H](OC(=O)CCCCCCC)[C@@](O)(O4)C(C)(C)/C=C/[C@@H](C1)O2)C[C@H](OC(C)=O)C3(C)C [SUW133]
- replication-competent virus from splenocytes in ex vivo cultures (HIV; SUW133-treated mice, prior studies): generated replication-competent virus
- delay of rebound viremia after ART interruption (HIV; SUW133 alone, prior studies): up to two to four weeks
- time of maximal CD69 expression on CD4+ T cells in vivo (HIV; post-SUW133 injection, previous report): approximately one to two days
- time CD69 can be detected on CD4+ T cells in vivo (HIV; post-injection, previous report): up to nine days
- CD4+ T cell activation and latency reversal in vivo (HIV; single administration): activated CD4^+ T cells and reversed latency in vivo
- delay to rebound after ART interruption (Kaplan-Meier, log-rank) (barcoded HIV NL-HABC; combination vs other groups (P=0.012 vs DMSO, 0.0037 vs SUW133, 0.09 vs NK), single agents vs DMSO (P=0.59, 0.47)): did not demonstrate a significant delay in rebound
- mean unique barcodes per mouse (barcoded HIV NL-HABC; deep sequencing of rebounding viral RNA, DMSO alone 4.7): 4.1
- CD69 expression on peripheral CD4+ T cells in the blood (barcoded HIV NL-HABC; five days after administration of SUW133): significant increase; also recorded: significantly elevated
- rebound viremia during the lengthened interval of ART interruption (barcoded HIV NL-HABC; monitored about 12 weeks): eventually rebound; also recorded: rebounded
